Laboratory results reported in ChEMBL document CHEMBL4052776, “Discovery of 3-morpholino-imidazole[1,5-a]pyrazine BTK inhibitors for rheumatoid arthritis” (Bioorg Med Chem Lett, 2017).

Assays:
[1] = biological target: Tyrosine-protein kinase CSK (Homo sapiens, UniProt P41240); assay: Inhibition of CSK (unknown origin)
[2] = biological target: Tyrosine-protein kinase Fyn (Homo sapiens, UniProt P06241); assay: Inhibition of FYN (unknown origin)
[3] = Half life in dog at 2 mg/kg administered as cassette dose; format: ADME, organism-based, Canis lupus familiaris; conditions: in vivo
[4] = biological target: Tyrosine-protein kinase Blk (Homo sapiens, UniProt P51451); assay: Inhibition of BLK (unknown origin)
Tyrosine-protein kinase Blk, sequence (P51451 whole entry): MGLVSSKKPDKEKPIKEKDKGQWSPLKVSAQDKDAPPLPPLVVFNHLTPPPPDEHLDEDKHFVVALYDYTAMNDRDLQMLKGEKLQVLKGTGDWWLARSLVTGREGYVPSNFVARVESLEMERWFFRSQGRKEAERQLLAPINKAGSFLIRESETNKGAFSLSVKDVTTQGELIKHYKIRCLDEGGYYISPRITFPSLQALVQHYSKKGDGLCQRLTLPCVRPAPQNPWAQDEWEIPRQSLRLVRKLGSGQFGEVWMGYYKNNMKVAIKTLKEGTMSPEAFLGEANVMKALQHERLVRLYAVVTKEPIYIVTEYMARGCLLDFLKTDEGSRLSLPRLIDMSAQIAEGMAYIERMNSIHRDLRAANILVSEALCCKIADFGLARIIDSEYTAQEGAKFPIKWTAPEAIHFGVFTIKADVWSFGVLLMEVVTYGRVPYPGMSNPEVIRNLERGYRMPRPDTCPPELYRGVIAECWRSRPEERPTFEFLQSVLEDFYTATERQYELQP

[5] = biological target: Tyrosine-protein kinase Yes (Homo sapiens, UniProt P07947); assay: Inhibition of YES1 (unknown origin)
[6] = biological target: Receptor tyrosine-protein kinase erbB-4 (Homo sapiens, UniProt Q15303); assay: Inhibition of ERBB4 (unknown origin)
[7] = biological target: T1, Tyrosine-protein kinase Tec (Homo sapiens, UniProt P42680); assay: Inhibition of TEC (unknown origin)
T1 sequence (P42680 whole entry): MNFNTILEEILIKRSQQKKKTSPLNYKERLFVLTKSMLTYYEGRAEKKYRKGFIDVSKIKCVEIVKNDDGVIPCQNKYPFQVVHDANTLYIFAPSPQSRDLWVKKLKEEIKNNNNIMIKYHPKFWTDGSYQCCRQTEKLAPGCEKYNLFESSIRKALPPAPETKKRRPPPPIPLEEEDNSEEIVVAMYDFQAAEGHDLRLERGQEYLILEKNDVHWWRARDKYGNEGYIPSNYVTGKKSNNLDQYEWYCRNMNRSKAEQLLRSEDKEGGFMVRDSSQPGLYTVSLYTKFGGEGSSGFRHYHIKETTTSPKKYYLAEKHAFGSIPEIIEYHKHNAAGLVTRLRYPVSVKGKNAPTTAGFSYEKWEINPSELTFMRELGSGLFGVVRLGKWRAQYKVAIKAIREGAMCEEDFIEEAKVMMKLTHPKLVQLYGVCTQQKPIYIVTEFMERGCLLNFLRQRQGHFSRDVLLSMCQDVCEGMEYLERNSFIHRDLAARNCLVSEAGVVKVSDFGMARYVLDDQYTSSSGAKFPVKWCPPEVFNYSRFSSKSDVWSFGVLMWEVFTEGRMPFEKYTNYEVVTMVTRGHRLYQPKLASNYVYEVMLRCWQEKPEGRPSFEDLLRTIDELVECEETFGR

[8] = biological target: Tyrosine-protein kinase FRK (Homo sapiens, UniProt P42685); assay: Inhibition of FRK (unknown origin)
Tyrosine-protein kinase FRK, sequence (P42685 whole entry): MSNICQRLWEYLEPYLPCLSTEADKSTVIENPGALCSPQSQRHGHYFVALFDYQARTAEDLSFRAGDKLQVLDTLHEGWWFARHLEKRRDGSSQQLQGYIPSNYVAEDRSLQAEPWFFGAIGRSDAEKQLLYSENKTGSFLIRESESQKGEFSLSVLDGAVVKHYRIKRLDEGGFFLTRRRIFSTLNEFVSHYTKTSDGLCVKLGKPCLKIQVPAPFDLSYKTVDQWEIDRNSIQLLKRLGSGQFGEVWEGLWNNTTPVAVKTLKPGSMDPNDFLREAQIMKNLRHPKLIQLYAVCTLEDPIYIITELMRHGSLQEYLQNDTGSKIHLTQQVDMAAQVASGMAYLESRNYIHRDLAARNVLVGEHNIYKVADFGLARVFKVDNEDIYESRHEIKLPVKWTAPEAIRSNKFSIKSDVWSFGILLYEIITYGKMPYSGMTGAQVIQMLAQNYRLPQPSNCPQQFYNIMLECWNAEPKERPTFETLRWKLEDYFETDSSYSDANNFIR

[9] = biological target: Tyrosine-protein kinase Lck (Homo sapiens, UniProt P06239); assay: Inhibition of LCK (unknown origin)
[10] = biological target: T2, Tyrosine-protein kinase TXK (Homo sapiens, UniProt P42681); assay: Inhibition of TXK (unknown origin)
T2 sequence (P42681 whole entry): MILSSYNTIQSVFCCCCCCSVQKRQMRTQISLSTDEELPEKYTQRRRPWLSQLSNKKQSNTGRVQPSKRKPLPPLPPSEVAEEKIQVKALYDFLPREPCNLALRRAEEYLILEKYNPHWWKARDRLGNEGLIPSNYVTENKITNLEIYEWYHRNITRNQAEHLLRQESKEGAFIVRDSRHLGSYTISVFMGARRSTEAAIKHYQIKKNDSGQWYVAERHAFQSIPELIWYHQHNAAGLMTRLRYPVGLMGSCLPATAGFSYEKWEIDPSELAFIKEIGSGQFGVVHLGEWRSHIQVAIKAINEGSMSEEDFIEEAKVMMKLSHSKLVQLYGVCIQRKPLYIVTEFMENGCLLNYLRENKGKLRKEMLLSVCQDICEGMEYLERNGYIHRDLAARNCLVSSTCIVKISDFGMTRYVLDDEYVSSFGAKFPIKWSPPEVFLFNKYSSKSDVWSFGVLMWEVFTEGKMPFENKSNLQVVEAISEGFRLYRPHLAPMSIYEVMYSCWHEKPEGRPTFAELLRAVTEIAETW

[11] = biological target: Tyrosine-protein kinase Srms (Homo sapiens, UniProt Q9H3Y6); assay: Inhibition of SRMS (unknown origin)
[12] = Oral bioavailability in rat at 10 mg/kg; format: ADME, organism-based; conditions: in vivo
[13] = biological target: Proto-oncogene tyrosine-protein kinase Src (Homo sapiens, UniProt P12931); assay: Inhibition of SRC (unknown origin)
Proto-oncogene tyrosine-protein kinase Src, sequence (P12931 2-536 limits assumed): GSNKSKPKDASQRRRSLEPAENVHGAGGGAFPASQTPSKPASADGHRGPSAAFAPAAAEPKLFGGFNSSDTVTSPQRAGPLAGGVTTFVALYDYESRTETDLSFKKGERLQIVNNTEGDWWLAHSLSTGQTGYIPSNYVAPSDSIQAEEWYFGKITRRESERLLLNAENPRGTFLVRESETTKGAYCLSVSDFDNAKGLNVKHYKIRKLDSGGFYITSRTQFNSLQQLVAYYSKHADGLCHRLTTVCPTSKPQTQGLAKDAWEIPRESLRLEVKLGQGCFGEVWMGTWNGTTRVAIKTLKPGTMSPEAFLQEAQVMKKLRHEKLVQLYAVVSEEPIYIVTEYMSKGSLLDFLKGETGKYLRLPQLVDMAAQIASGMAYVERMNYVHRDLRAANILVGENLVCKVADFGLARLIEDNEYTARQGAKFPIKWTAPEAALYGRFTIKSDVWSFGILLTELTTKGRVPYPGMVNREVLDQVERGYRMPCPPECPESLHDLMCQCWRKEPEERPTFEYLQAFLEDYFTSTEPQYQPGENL

[14] = Total clearance in dog plasma at 2 mg/kg administered as cassette dose; format: ADME, organism-based, Canis lupus familiaris
[15] = biological target: Tyrosine-protein kinase Lyn (Homo sapiens, UniProt P07948); assay: Inhibition of LYNB (unknown origin)
Tyrosine-protein kinase Lyn, sequence (P07948 whole entry): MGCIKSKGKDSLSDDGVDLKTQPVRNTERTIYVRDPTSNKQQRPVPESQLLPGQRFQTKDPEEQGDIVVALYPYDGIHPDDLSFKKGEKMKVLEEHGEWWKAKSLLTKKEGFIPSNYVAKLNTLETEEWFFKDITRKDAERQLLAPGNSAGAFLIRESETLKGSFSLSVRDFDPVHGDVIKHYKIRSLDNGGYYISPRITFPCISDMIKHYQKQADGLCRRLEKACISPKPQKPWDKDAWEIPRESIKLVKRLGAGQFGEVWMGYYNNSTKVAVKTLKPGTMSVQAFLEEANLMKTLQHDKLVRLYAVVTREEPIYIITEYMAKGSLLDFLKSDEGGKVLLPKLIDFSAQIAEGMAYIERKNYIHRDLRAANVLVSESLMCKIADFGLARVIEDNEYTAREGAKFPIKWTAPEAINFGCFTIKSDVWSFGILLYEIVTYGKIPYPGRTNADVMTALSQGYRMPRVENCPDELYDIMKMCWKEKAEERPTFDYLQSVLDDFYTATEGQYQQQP

[16] = biological target: T3, Tyrosine-protein kinase BTK (Homo sapiens, UniProt Q06187); assay: Inhibition of recombinant full-length His6-tagged BTK (unknown origin) expressed in baculovirus infected Sf9 cells using biotinylated A5 peptide as substrate preincubated for 60 mins followed by substrate addition measured after 120 mins by LANCE TR-FRET assay
T3 sequence (Q06187 whole entry): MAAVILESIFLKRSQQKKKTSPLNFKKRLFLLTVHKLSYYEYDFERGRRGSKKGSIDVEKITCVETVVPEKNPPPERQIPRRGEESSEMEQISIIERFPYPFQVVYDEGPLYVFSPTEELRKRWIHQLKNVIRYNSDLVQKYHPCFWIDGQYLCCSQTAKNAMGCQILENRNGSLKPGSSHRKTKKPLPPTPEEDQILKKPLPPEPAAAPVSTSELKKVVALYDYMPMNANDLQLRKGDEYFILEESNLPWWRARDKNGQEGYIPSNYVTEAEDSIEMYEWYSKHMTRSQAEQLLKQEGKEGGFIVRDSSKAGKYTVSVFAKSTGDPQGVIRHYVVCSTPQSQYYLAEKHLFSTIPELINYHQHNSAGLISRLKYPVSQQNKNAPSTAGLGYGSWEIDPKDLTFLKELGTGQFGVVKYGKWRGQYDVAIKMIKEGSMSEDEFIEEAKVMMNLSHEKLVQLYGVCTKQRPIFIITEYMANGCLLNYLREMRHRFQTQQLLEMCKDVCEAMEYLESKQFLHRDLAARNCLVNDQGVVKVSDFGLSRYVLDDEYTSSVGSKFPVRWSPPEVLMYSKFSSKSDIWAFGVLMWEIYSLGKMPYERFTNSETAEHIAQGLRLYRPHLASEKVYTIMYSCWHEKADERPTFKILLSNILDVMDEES

[17] = Total clearance in rat plasma at 10 mg/kg; format: ADME, organism-based
[18] = biological target: T4, Cytoplasmic tyrosine-protein kinase BMX (Homo sapiens, UniProt P51813); assay: Inhibition of BMX (unknown origin)
T4 sequence (P51813 whole entry): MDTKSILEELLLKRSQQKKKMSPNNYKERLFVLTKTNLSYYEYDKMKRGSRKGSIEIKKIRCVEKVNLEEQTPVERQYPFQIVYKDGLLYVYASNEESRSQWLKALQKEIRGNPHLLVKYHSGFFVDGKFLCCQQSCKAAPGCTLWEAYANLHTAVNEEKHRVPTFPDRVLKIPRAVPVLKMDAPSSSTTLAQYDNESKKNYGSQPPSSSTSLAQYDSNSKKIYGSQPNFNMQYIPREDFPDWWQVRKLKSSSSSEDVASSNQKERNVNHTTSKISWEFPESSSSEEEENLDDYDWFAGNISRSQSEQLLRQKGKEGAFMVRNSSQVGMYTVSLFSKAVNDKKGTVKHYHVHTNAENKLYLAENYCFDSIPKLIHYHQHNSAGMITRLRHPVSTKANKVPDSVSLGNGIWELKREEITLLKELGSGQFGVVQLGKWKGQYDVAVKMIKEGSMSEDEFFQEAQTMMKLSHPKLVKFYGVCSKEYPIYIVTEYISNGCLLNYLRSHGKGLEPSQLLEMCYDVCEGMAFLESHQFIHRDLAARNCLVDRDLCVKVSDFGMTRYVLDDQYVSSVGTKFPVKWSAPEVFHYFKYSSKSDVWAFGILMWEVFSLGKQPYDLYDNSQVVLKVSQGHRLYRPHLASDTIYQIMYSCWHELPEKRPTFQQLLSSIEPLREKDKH

[19] = biological target: T3, Tyrosine-protein kinase BTK; assay: Inhibition of BTK in human PBMC assessed as reduction in anti-IgM-induced MIP1beta
[20] = Half life in rat at 10 mg/kg; format: ADME, organism-based; conditions: in vivo
[21] = biological target: Protein-tyrosine kinase 6 (Homo sapiens, UniProt Q13882); assay: Inhibition of PTK6 (unknown origin)
[22] = biological target: Tyrosine-protein kinase Fgr (Homo sapiens, UniProt P09769); assay: Inhibition of FGR (unknown origin)
Tyrosine-protein kinase Fgr, sequence (P09769 whole entry): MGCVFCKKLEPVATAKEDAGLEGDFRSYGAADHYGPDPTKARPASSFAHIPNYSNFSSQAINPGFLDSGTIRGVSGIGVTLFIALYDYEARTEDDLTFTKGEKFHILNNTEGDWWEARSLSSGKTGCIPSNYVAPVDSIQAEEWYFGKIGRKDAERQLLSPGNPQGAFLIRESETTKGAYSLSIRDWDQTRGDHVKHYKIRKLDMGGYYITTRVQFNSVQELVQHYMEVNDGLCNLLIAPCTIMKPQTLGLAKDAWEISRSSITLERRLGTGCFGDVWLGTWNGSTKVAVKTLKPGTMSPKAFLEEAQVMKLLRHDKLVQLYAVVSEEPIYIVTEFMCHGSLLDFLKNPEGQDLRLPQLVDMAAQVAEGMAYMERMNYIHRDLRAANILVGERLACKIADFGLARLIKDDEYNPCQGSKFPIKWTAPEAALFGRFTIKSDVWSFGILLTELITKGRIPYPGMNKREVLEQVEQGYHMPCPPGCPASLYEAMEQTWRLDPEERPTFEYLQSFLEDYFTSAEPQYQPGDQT

[23] = Oral bioavailability in dog at 2 mg/kg; format: ADME, organism-based, Canis lupus familiaris; conditions: in vivo
[24] = Total clearance in dog plasma at 2 mg/kg; format: ADME, organism-based, Canis lupus familiaris
[25] = Half life in dog at 2 mg/kg; format: ADME, organism-based, Canis lupus familiaris; conditions: in vivo
[26] = biological target: Voltage-gated inwardly rectifying potassium channel KCNH2 (Homo sapiens, UniProt Q12809); assay: Inhibition of human ERG by [35S]-MK499 displacement or iKr channel assay
Voltage-gated inwardly rectifying potassium channel KCNH2, sequence (Q12809 whole entry): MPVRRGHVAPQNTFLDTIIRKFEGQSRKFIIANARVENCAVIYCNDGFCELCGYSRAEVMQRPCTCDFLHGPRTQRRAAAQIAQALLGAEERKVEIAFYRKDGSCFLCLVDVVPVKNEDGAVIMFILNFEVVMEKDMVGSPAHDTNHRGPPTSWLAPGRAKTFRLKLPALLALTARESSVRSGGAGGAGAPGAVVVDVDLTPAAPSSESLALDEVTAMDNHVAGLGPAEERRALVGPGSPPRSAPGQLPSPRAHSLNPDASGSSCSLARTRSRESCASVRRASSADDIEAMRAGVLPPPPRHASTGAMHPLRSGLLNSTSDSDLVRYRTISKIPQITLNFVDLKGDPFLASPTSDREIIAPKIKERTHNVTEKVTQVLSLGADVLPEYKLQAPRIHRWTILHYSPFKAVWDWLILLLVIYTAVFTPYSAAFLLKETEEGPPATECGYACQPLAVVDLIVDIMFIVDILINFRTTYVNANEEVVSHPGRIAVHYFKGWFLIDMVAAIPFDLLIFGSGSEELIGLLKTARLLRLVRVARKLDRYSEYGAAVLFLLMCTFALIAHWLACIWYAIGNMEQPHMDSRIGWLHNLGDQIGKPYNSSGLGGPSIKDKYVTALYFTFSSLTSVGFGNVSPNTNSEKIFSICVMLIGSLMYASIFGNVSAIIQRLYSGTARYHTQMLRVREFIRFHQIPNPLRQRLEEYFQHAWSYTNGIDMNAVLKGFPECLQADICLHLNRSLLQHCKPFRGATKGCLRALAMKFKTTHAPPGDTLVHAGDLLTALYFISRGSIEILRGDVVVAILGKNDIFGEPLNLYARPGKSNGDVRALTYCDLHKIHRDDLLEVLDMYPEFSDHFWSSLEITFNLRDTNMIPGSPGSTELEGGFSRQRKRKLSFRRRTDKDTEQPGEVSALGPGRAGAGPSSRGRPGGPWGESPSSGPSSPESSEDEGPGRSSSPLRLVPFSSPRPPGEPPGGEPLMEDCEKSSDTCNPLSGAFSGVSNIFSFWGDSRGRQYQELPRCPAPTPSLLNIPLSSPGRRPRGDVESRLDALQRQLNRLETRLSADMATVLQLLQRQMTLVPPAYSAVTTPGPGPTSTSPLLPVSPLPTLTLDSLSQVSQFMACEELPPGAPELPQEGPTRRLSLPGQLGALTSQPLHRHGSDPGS

Homo sapiens [27] = species on record: Homo sapiens; assay: Selectivity ratio of IC50 for FGR (unknown origin) to IC50 for BTK (unknown origin)
Homo sapiens [28] = species on record: Homo sapiens; assay: Selectivity ratio of IC50 for FYN (unknown origin) to IC50 for BTK (unknown origin)
Homo sapiens [29] = species on record: Homo sapiens; assay: Selectivity ratio of IC50 for ERBB4 (unknown origin) to IC50 for BTK (unknown origin)
Homo sapiens [30] = species on record: Homo sapiens; assay: Selectivity ratio of IC50 for SRMS (unknown origin) to IC50 for BTK (unknown origin)
Homo sapiens [31] = species on record: Homo sapiens; assay: Selectivity ratio of IC50 for YES1 (unknown origin) to IC50 for BTK (unknown origin)
Homo sapiens [32] = species on record: Homo sapiens; assay: Selectivity ratio of IC50 for LYNB (unknown origin) to IC50 for BTK (unknown origin)
Homo sapiens [33] = species on record: Homo sapiens; assay: Selectivity ratio of IC50 for TXK (unknown origin) to IC50 for BTK (unknown origin)
Homo sapiens [34] = species on record: Homo sapiens; assay: Selectivity ratio of IC50 for FRK (unknown origin) to IC50 for BTK (unknown origin)
Homo sapiens [35] = species on record: Homo sapiens; assay: Selectivity ratio of IC50 for PTK6 (unknown origin) to IC50 for BTK (unknown origin)
Homo sapiens [36] = species on record: Homo sapiens; assay: Selectivity ratio of IC50 for BMX (unknown origin) to IC50 for BTK (unknown origin)
Homo sapiens [37] = species on record: Homo sapiens; assay: Selectivity ratio of IC50 for TEC (unknown origin) to IC50 for BTK (unknown origin)
Homo sapiens [38] = species on record: Homo sapiens; assay: Selectivity ratio of IC50 for LCK (unknown origin) to IC50 for BTK (unknown origin)
Homo sapiens [39] = species on record: Homo sapiens; assay: Selectivity ratio of IC50 for BLK (unknown origin) to IC50 for BTK (unknown origin)
Homo sapiens [40] = species on record: Homo sapiens; assay: Selectivity ratio of IC50 for SRC (unknown origin) to IC50 for BTK (unknown origin)
Homo sapiens [41] = species on record: Homo sapiens; assay: Selectivity ratio of IC50 for CSK (unknown origin) to IC50 for BTK (unknown origin)

Tyrosine-protein kinase Fyn, sequence (P06241 whole entry): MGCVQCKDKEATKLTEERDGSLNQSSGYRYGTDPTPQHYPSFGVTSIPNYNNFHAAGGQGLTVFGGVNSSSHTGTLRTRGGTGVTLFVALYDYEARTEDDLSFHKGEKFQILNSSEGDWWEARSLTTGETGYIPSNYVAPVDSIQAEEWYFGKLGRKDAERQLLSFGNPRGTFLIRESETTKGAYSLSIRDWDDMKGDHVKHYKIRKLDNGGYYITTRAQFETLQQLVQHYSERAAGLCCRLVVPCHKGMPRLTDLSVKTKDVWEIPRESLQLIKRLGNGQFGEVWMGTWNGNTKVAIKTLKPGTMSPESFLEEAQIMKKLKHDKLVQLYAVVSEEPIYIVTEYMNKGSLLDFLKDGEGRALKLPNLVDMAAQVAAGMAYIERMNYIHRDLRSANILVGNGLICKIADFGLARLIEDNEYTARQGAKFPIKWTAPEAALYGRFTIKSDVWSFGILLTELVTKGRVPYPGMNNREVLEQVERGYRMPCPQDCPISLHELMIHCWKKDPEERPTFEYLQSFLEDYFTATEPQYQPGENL

Compound | IC50 [1] [nM] | IC50 [2] [nM] | IC50 [4] [nM] | IC50 [5] [nM] | IC50 [6] [nM] | IC50 [7] [nM] | IC50 [8] [nM] | IC50 [9] [nM] | IC50 [10] [nM] | IC50 [11] [nM] | bioavailability [12] [%] | IC50 [13] [nM] | IC50 [15] [nM] | IC50 [16] [nM] | clearance [17] [mL/min/kg] | IC50 [18] [nM] | IC50 [19] [nM] | IC50 [21] [nM] | IC50 [22] [nM] | IC50 [26] [nM] | other results
CC(C)C(=O)N1CCC[C@@H](c2nc(-c3ccc(C(=O)Nc4cc(C(F)(F)F)ccn4)cc3F)c3c(N)nccn23)C1 | 1150 | 894 | 53 | 189 | 230 | 378 | 472 | 74 | 132 | 84 | – | 265 | 646 | 0.25 to 0.3 | – | 83 | 5 | 350 | 203 | – | –
CC1(C(=O)N2CCO[C@@H](c3nc(-c4ccc(C(=O)Nc5cc(C(F)(F)F)ccn5)cc4F)c4c(N)nccn34)C2)CCC1 | – | – | – | – | – | – | – | – | – | – | – | – | – | – | – | – | – | – | – | 14000 | –
CC1(C(=O)N2CC[C@@H](c3nc(-c4ccc(C(=O)Nc5cc(C(F)(F)F)ccn5)cc4)c4c(N)nccn34)C2)COC1 | – | – | – | – | – | – | – | – | – | – | – | – | – | – | – | – | – | – | – | 2500 | –

The next lines start with results.

IC50 [1] [nM] | IC50 [2] [nM] | IC50 [4] [nM] | IC50 [5] [nM] | IC50 [6] [nM] | IC50 [7] [nM] | IC50 [8] [nM] | IC50 [9] [nM] | IC50 [10] [nM] | IC50 [11] [nM] | bioavailability [12] [%] | IC50 [13] [nM] | IC50 [15] [nM] | IC50 [16] [nM] | clearance [17] [mL/min/kg] | IC50 [18] [nM] | IC50 [19] [nM] | IC50 [21] [nM] | IC50 [22] [nM] | Compound | IC50 [26] [nM] | other results
665 | 248 | 50 | 60 | 76 | 191 | 132 | 21 | 282 | 65 | 75 | 112 | 399 | 0.59 to 0.6 | 23 | 200 | 13 | 113 | 39 | Nc1nccn2c([C@H]3CN(C4CCOCC4)CCO3)nc(-c3ccc(C(=O)Nc4cc(C(F)(F)F)ccn4)cc3F)c12 | – | half-life [3]: 3.1 h; clearance [14]: 5.9 mL/min/kg; half-life [20]: 1.1 h
– | – | – | – | – | – | – | – | – | – | 40 | – | – | – | 4.2 | – | – | – | – | C[C@H]1CO[C@@H](c2nc(-c3ccc(C(=O)Nc4cc(C(F)(F)F)ccn4)cc3F)c3c(N)nccn23)CN1C(=O)C1CC1 | – | bioavailability [23]: 88%; clearance [24]: 1.6 mL/min/kg; half-life [25]: 8.8 h; half-life [20]: 3.9 h
455 | 105 | 29 | 32 | 59 | 170 | 85 | 7 | 231 | 50 | – | 77 | 115 | 0.8 to 0.83 | – | 127 | 65 | 48 | 22 | Nc1nccn2c([C@@H]3CCCN(C4CCOCC4)C3)nc(-c3ccc(C(=O)Nc4cc(C(F)(F)F)ccn4)cc3F)c12 | 100 | Ratio IC50 (Homo sapiens [27]): 26; Ratio IC50 (Homo sapiens [28]): 127; Ratio IC50 (Homo sapiens [29]): 71; Ratio IC50 (Homo sapiens [30]): 60; Ratio IC50 (Homo sapiens [31]): 38; Ratio IC50 (Homo sapiens [32]): 138; Ratio IC50 (Homo sapiens [33]): 278; Ratio IC50 (Homo sapiens [34]): 102; Ratio IC50 (Homo sapiens [35]): 58; Ratio IC50 (Homo sapiens [36]): 153; Ratio IC50 (Homo sapiens [37]): 205; Ratio IC50 (Homo sapiens [38]): 9; Ratio IC50 (Homo sapiens [39]): 35; Ratio IC50 (Homo sapiens [40]): 93; Ratio IC50 (Homo sapiens [41]): 548
